Assays:
Assay in all cases: […]-SAM radiochemical methyltransferase assay, Michaelis-Menten fit
Conditions in all cases: SAM 320 μM (saturating), 50 mM Tris-HCl, 24 °C
TcCS1 = type: biochemical, Theobroma cacao
TcAncCS1 = type: biochemical, synthetic construct
TcAncCS2 = type: biochemical, synthetic construct
PcCS1 = type: biochemical, Paullinia cupana
PcAncCS1 = type: biochemical, synthetic construct
CsAncCS = type: biochemical, synthetic construct
PcCS2 = type: biochemical, Paullinia cupana
TcCS2 = type: biochemical, Theobroma cacao

Row | SMILES | Km (TcCS1) | Km (TcAncCS1) | Km (TcAncCS2) | Km (PcCS1) | Km (PcAncCS1) | Km (CsAncCS) | Km (PcCS2) | Km (TcCS2)
1 | O=c1[nH]c(=O)c2[nH]cnc2[nH]1 [X, xanthine] | 95.8 µM | 53.4 µM | 4.14 µM | 95.4 µM | 418 µM |  |  | 
2 | Cn1cnc2[nH]c(=O)[nH]c(=O)c21 [7X, 7-methylxanthine] |  | 34.6 µM |  |  |  | 26.7 µM |  | 
3 | Cn1c(=O)[nH]c(=O)c2[nH]cnc21 [3X, 3-methylxanthine] |  | 139 µM | 154 µM |  |  |  | 677 µM | 49.1 µM

— publication PMC8233510 (Molecular Biology and Evolution, 2021)
